PubChem BioAssay AID330 (DTP/NCI, 2004)
“And” between values parts separate entries of the source, which are not always exact repeats. Identical values can stand only once. Toxic doses and inconclusive results are not listed. The calls were made as follows: active = survival T/C of 150% or more; inactive = T/C below 125% in these data.

Test system: P388 leukemia ip, CD2F1 mice, survival T/C
Assay: NCI In Vivo Anticancer Drug Screen. Data for tumor model P388 Leukemia (intraperitoneal) in CD2F1 (CDF1) mice
Conditions: endpoint: median survival time, higher = longer survival
Method in brief: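 Mice carrying the transplanted tumor received test compound or vehicle. Survival was recorded in each group, and the value is the treated-group measurement divided by that of the vehicle-treated control group.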

[1] = dose: 50.0 mg/kg/injection, schedule: Q01DX005 (ip), vehicle: saline with Tween-80
[2] = dose: 100.0 mg/kg/injection, schedule: Q01DX005 (ip), vehicle: saline with Tween-80
[3] = dose: 100.0 mg/kg/injection, schedule: Q01DX001 (ip), vehicle: Klucel (hydroxypropylcellulose) (HPC)
[4] = dose: 200.0 mg/kg/injection, schedule: Q01DX001 (ip), vehicle: Klucel (hydroxypropylcellulose) (HPC)
[5] = dose: 50.0 mg/kg/injection, schedule: Q01DX009 (ip), vehicle: saline
[6] = dose: 12.5 mg/kg/injection, schedule: Q01DX009 (ip), vehicle: saline with Tween-80
[7] = dose: 25.0 mg/kg/injection, schedule: Q01DX009 (ip), vehicle: saline with Tween-80
[8] = dose: 50.0 mg/kg/injection, schedule: Q01DX009 (ip), vehicle: saline with Tween-80
[9] = dose: 50.0 mg/kg/injection, schedule: Q01DX005 (ip), vehicle: saline
[10] = dose: 100.0 mg/kg/injection, schedule: Q01DX005 (ip), vehicle: saline
[11] = dose: 200.0 mg/kg/injection, schedule: Q01DX005 (ip), vehicle: saline

Measured: T/C

O=C(c1ccccc1)c1c(-c2ccccc2)noc1-c1ccccc1
inactive: dose: 100.0 mg/kg/injection, schedule: Q04DX003 (ip), vehicle: saline 109 % of control | dose: 200.0 mg/kg/injection, schedule: Q04DX003 (ip), vehicle: saline 100 % of control | dose: 400.0 mg/kg/injection, schedule: Q04DX003 (ip), vehicle: saline 108 % of control

CN(C)N1C(=O)c2c(Cl)c(Cl)c(Cl)c(Cl)c2C1=O
inactive: [1] 94 % of control | [2] 89 % of control

Cc1ccc(C(=O)n2c(Br)c(/C=N/NC(N)=S)c3ccccc32)cc1
inactive: [3] 100 % of control | [4] 100 % of control | dose: 400.0 mg/kg/injection, schedule: Q01DX001 (ip), vehicle: Klucel (hydroxypropylcellulose) (HPC) 95 % of control

CC(C)(C)[Si](C)(C)ONC(N)=O
inactive: dose: 12.5 mg/kg/injection, schedule: Q01DX009 (ip), vehicle: distilled water + Tween-80 99 % of control | dose: 25.0 mg/kg/injection, schedule: Q01DX009 (ip), vehicle: distilled water + Tween-80 94 % of control | dose: 50.0 mg/kg/injection, schedule: Q01DX009 (ip), vehicle: distilled water + Tween-80 93 % of control | dose: 100.0 mg/kg/injection, schedule: Q01DX009 (ip), vehicle: distilled water + Tween-80 88 % of control | dose: 200.0 mg/kg/injection, schedule: Q01DX009 (ip), vehicle: distilled water + Tween-80 90 % of control

CSC1=Nc2ccccc2SC(c2ccccc2)C1c1ccccc1 (stereo not given)
inactive: dose: 50.0 mg/kg/injection, schedule: Q01DX005 (ip), vehicle: Klucel (hydroxypropylcellulose) (HPC) 99 % of control | dose: 100.0 mg/kg/injection, schedule: Q01DX005 (ip), vehicle: Klucel (hydroxypropylcellulose) (HPC) 95 % of control | dose: 200.0 mg/kg/injection, schedule: Q01DX005 (ip), vehicle: Klucel (hydroxypropylcellulose) (HPC) 96 % of control

CN1CCCC1=O
inactive: [5] 95 % of control

CCOc1ccc(NC(=O)C(=O)NNC(=S)NC)cc1
inactive: [6] 94 % of control | [7] 92 % of control | [8] 92 % of control and 97 % of control

NC(CSCCCS(=O)(=O)O)C(=O)O (stereo not given)
inactive: [9] 101 % of control | [10] 98 % of control | [11] 100 % of control

c1ccc(-n2ncc3ccc4cccn4c32)cc1
inactive: dose: 60.0 mg/kg/injection, schedule: Q01DX005 (ip), vehicle: saline with Tween-80 108 % of control | dose: 120.0 mg/kg/injection, schedule: Q01DX005 (ip), vehicle: saline with Tween-80 111 % of control | dose: 240.0 mg/kg/injection, schedule: Q01DX005 (ip), vehicle: saline with Tween-80 120 % of control

Nc1nnn(CCCl)n1
inactive: [3] 88 % of control | [4] 88 % of control

CP1(=S)CC(Br)=C2CCCCC21 (stereo not given)
inactive: dose: 100.0 mg/kg/injection, schedule: Q04DX003 (ip), vehicle: Klucel (hydroxypropylcellulose) (HPC) 108 % of control | dose: 200.0 mg/kg/injection, schedule: Q04DX003 (ip), vehicle: Klucel (hydroxypropylcellulose) (HPC) 106 % of control | dose: 400.0 mg/kg/injection, schedule: Q04DX003 (ip), vehicle: Klucel (hydroxypropylcellulose) (HPC) 107 % of control

CCCCCCCCCCCCCCCCCC(=O)NC1=C(Cl)C(=O)c2ccccc2C1=O
inactive: [1] 94 % of control | [2] 94 % of control | dose: 200.0 mg/kg/injection, schedule: Q01DX005 (ip), vehicle: saline with Tween-80 91 % of control

Cc1cccc(C(=O)CCN(C)C)c1
inactive: dose: 12.5 mg/kg/injection, schedule: Q01DX009 (ip), vehicle: saline 94 % of control | dose: 25.0 mg/kg/injection, schedule: Q01DX009 (ip), vehicle: saline 99 % of control | [5] 100 % of control and 101 % of control and 108 % of control | dose: 100.0 mg/kg/injection, schedule: Q01DX009 (ip), vehicle: saline 98 % of control

CC(C)NC1(N(C)C)N=C(N(C)C)N=C(N(C)C)O1 (stereo not given)
inactive: [9] 101 % of control | [10] 101 % of control

C[N+](C)([O-])c1ccc(C(=O)C2CCCCC2)cc1
inactive: dose: 100.0 mg/kg/injection, schedule: Q04DX002 (ip), vehicle: saline 101 % of control | dose: 200.0 mg/kg/injection, schedule: Q04DX002 (ip), vehicle: saline 99 % of control | dose: 400.0 mg/kg/injection, schedule: Q04DX002 (ip), vehicle: saline 103 % of control

O=C1CC2(O)CSc3nc(=O)cc(n32)N1 (stereo not given)
inactive: [9] 107 % of control | [10] 106 % of control | [11] 94 % of control

CCOC(=O)Nc1cc2c(c(N)n1)N=C(c1ccc(C(F)(F)F)cc1)CN2
inactive: dose: 2.5 mg/kg/injection, schedule: Q01DX009 (ip), vehicle: saline with Tween-80 109 % of control | dose: 5.0 mg/kg/injection, schedule: Q01DX009 (ip), vehicle: saline with Tween-80 111 % of control | dose: 7.5 mg/kg/injection, schedule: Q04DX003 (ip), vehicle: saline with Tween-80 101 % of control | dose: 10.0 mg/kg/injection, schedule: Q01DX009 (ip), vehicle: saline with Tween-80 111 % of control | [6] 86 % of control | dose: 15.0 mg/kg/injection, schedule: Q04DX003 (ip), vehicle: saline with Tween-80 104 % of control | dose: 22.5 mg/kg/injection, schedule: Q01DX001 (ip), vehicle: saline with Tween-80 101 % of control | [7] 111 % of control | dose: 30.0 mg/kg/injection, schedule: Q04DX003 (ip), vehicle: saline with Tween-80 101 % of control | dose: 45.0 mg/kg/injection, schedule: Q01DX001 (ip), vehicle: saline with Tween-80 94 % of control | [8] 117 % of control | dose: 90.0 mg/kg/injection, schedule: Q01DX001 (ip), vehicle: saline with Tween-80 101 % of control

CC(=O)Oc1cc2c3c(c1)-c1c(ccc(OC(C)=O)c1OC(C)=O)CC3NCC2 (stereo not given)
inactive: dose: 3.13 mg/kg/injection, schedule: Q04DX003 (ip), vehicle: DMSO 101 % of control | dose: 6.25 mg/kg/injection, schedule: Q04DX003 (ip), vehicle: DMSO 101 % of control | dose: 12.5 mg/kg/injection, schedule: Q04DX003 (ip), vehicle: DMSO 103 % of control | dose: 25.0 mg/kg/injection, schedule: Q04DX003 (ip), vehicle: DMSO 108 % of control | dose: 50.0 mg/kg/injection, schedule: Q04DX003 (ip), vehicle: DMSO 108 % of control | dose: 100.0 mg/kg/injection, schedule: Q04DX003 (ip), vehicle: DMSO 99 % of control

COC(=O)C1Cc2cocc2CC(C(=O)OC)N1C(=O)OC(C)(C)C (stereo not given)
inactive: dose: 8.75 mg/kg/injection, schedule: Q01DX005 (ip), vehicle: Klucel (hydroxypropylcellulose) (HPC) 99 % of control | dose: 17.5 mg/kg/injection, schedule: Q01DX005 (ip), vehicle: Klucel (hydroxypropylcellulose) (HPC) 101 % of control | dose: 35.0 mg/kg/injection, schedule: Q01DX005 (ip), vehicle: Klucel (hydroxypropylcellulose) (HPC) 99 % of control

CCCC(CC(=O)O)c1c2c(c(O)c3c1OC(C)C(C)C3=O)C=CC(C)(C)O2 (stereo not given)
inactive: dose: 60.0 mg/kg/injection, schedule: Q01DX005 (ip), vehicle: Klucel (hydroxypropylcellulose) (HPC) 97 % of control | dose: 120.0 mg/kg/injection, schedule: Q01DX005 (ip), vehicle: Klucel (hydroxypropylcellulose) (HPC) 103 % of control | dose: 240.0 mg/kg/injection, schedule: Q01DX005 (ip), vehicle: Klucel (hydroxypropylcellulose) (HPC) 93 % of control
